For test [1], the target named is T1, Kinesin-like protein KIF11 (Homo sapiens, UniProt P52732).
T1 sequence (P52732 whole entry): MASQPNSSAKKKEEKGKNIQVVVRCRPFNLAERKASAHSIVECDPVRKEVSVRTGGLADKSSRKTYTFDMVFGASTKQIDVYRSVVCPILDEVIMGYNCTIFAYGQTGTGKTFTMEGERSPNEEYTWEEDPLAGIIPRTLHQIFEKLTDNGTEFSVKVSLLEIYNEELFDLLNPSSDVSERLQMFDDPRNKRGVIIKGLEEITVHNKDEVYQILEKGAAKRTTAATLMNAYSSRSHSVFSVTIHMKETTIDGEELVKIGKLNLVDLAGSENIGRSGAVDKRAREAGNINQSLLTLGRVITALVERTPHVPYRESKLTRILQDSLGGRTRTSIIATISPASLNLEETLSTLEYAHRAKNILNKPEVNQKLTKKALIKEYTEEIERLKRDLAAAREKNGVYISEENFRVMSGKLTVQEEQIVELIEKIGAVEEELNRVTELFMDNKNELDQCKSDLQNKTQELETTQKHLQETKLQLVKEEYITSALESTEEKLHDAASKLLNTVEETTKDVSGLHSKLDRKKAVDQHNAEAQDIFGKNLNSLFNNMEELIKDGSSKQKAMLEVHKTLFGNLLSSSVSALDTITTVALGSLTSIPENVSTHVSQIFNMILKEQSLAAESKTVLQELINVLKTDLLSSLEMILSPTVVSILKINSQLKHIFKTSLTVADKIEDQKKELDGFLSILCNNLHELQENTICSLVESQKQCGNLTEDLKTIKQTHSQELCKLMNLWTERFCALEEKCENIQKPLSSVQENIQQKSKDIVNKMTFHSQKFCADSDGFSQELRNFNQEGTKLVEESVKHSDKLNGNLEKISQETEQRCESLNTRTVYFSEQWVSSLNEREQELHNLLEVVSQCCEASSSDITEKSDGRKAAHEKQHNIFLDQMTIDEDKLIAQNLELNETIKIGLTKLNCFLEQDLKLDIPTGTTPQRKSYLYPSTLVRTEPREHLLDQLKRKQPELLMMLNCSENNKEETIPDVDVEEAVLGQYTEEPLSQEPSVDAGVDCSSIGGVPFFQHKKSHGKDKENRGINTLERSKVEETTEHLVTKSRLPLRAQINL
Kind of test: Inhibition of human Eg5 motor domain (residues 2-386) ATPase activity expressed in Escherichia coli assessed as release of inorganic phosphate after 30 mins.

A further test has as its system A2780. In words: cells. As to conditions: Homo sapiens, A2780, 72 h.
The target in another test is T2, Aurora kinase A (Homo sapiens, UniProt O14965).
T2 sequence (O14965 whole entry): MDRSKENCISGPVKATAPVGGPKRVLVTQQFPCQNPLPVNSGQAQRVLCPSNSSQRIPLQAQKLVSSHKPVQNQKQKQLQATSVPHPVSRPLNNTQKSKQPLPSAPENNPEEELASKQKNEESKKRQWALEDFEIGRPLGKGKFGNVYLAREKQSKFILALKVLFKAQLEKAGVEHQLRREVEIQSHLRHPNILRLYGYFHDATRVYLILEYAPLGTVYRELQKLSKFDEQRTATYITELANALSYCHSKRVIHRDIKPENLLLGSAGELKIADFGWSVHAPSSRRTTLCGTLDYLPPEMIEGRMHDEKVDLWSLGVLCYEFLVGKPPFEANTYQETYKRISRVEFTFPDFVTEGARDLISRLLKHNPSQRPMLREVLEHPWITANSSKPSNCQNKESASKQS
Kind of test: Inhibition of human purified recombinant aurora-A kinase.

Test [2] has as its system HCT-116. In words: Ratio of CPUYL064 IC50 to compound IC50 for human HCT116 cells.
For the next test, the system named is HepG2. Kind of test: cells. As to conditions: Homo sapiens, HepG2, 72 h.
Test [3] has as its system HCT-116. In words: cells. As to conditions: Homo sapiens, HCT-116, 72 h.

SMILES strings stand for the structures.

Description for A2780: Cytotoxicity against human A2780 cells after 72 hrs by MTT assay
Description for HepG2: Cytotoxicity against human HepG2 cells after 72 hrs by MTT assay

By IC50 is commonly meant the concentration that gives 50% inhibition. Consider `COc1ccc(NC(=O)C2=C(C)Nc3n[nH]cc3C2c2ccco2)cc1` (configuration not stated), for which the half-maximal inhibitory concentration (IC50) in test [1] worked out at 0.0011 µM.
Consider `CC1=C(C(=O)Nc2ccc(F)cc2)C(c2ccco2)n2c(nc3ccccc32)N1` (configuration not stated), for which the IC50 in the test on A2780 was greater than 50 µM; on Aurora kinase A, 6.15 µM; in test [1], 5.65 µM; with HepG2, 7.38 µM; in the test on HCT-116 [3], 4.96 µM. Moreover, the “Ratio IC50” value with HCT-116 [2] stood at 2.5.
As for `CC1=C(C(=O)Nc2ccc(C(F)(F)F)cc2)C(c2ccccc2)c2c[nH]nc2N1` (configuration not stated), in test [1], the IC50 was 0.4 µM.
On the same count and under the same terms, the result for `CC1=C(C(=O)Nc2ccc([N+](=O)[O-])cc2)C(c2ccccc2)c2c[nH]nc2N1` (configuration not stated) reads 0.2 µM.
On the same count and under the same terms, in the case of `CC1=C(C(=O)Nc2ccc(F)c(Cl)c2)C(c2ccco2)c2c[nH]nc2N1` (configuration not stated) it was 0.4 µM; in that of `COc1ccc(NC(=O)C2=C(C)Nc3n[nH]cc3C2c2ccccc2)cc1` (configuration not stated), 2.82 µM.
Regarding `CN(C)c1ccc(-c2nc3cc(Cl)cnc3[nH]2)cc1`, the IC50 with A2780 stood at 4.26 µM; at Aurora kinase A, 4.97 µM; in test [1], 40.2 µM; in the test on HepG2, 5.85 µM; with HCT-116 [3], 4.71 µM.
Consider `CC1=C(C(=O)Nc2ccc(C(F)(F)F)cc2)C(c2ccco2)c2c[nH]nc2N1` (configuration not stated), for which the IC50 in test [1] is 1.06 µM.
Same read-out and setting: in the case of `CC1=C(C(=O)Nc2ccc([N+](=O)[O-])cc2)C(c2ccco2)c2c[nH]nc2N1` (configuration not stated) it was 2.76 µM.
Turning to `CCC(c1nc2cc(Cl)ccc2c(=O)n1Cc1ccccc1)N(CCCN(C)C)C(=O)c1ccc(Br)cc1` (configuration not stated) [CK0106023], the concentration for half-maximal inhibition (IC50) is 3 µM with A2780; greater than 50 µM at Aurora kinase A; 0.029 µM in test [1]; 2.1 µM in the test with HepG2; 0.94 µM in the test with HCT-116 [3].
Turning to `COc1ccc(NC(=O)C2=C(C)Nc3nc4ccccc4n3C2c2ccco2)cc1` (configuration not stated), the IC50 with A2780 turned out to be 9.34 µM; on Aurora kinase A it was 7.58 µM; in test [1], 2.46 µM; with HepG2, 4.97 µM; with HCT-116 [3] it was 8.71 µM.
With `CC1=C(C(=O)Nc2ccc(F)c(Cl)c2)C(c2ccccc2)c2c[nH]nc2N1` (configuration not stated), in test [1], the IC50 is 0.17 µM.
Still for that read-out and setting: the result for `CC1=C(C(=O)Nc2ccc(Cl)cc2)C(c2ccccc2)C2=C(CC(C)(C)CC2=O)N1` (configuration not stated) reads 0.18 µM.
As for `COc1ccc(NC(=O)C2=C(C)Nc3n[nH]cc3C2c2cccs2)cc1` (configuration not stated), the IC50 in test [1] is 0.0025 µM.
`CC1=C(C(=O)Nc2ccc(F)cc2)C(c2ccccc2)c2c[nH]nc2N1` (configuration not stated): the concentration for half-maximal inhibition (IC50) in test [1] was determined as 0.14 µM.
As to `CCOC(=O)C1=C(C)NC(=S)NC1c1cccc(O)c1` (configuration not stated) [MONASTROL], the IC50 on Aurora kinase A was greater than 50 µM; in test [1] it was 5.47 µM; with HCT-116 [3], greater than 50 µM.
As for `CC1=C(C(=O)Nc2ccc(F)c(Cl)c2)C(c2cccs2)c2c[nH]nc2N1` (configuration not stated), the 50% inhibitory concentration (IC50) in test [1] came to 0.44 µM.
On the same count and under the same terms, in the case of `CC1=C(C(=O)Nc2ccc([N+](=O)[O-])cc2)C(c2cccs2)c2c[nH]nc2N1` (configuration not stated) it was 0.82 µM.
For `CC1=C(C(=O)Nc2ccc([N+](=O)[O-])cc2)C(c2ccco2)n2c(nc3ccccc32)N1` (configuration not stated), the IC50 in the test on A2780 worked out at 3.05 µM; on Aurora kinase A it was 3 µM; in test [1], 20.9 µM; in the test with HepG2, 13.5 µM; with HCT-116 [3], 11.5 µM.
Turning to `CC1=C(C(=O)Nc2ccc(C(F)(F)F)cc2)C(c2ccco2)n2c(nc3ccccc32)N1` (configuration not stated), the results for the concentration for half-maximal inhibition (IC50) (at Aurora kinase A; in test [1]; in the test with HCT-116 [3]) were 1.32 µM, 3.32 µM and greater than 50 µM, respectively.
In the case of `CC1=C(C(=O)Nc2ccc(C(F)(F)F)cc2)C(c2cccs2)c2c[nH]nc2N1` (configuration not stated), in test [1], the half-inhibitory concentration (IC50) was 0.32 µM.
As to `CC1=C(C(=O)Nc2ccc(F)c(Cl)c2)C(c2ccco2)n2c(nc3ccccc32)N1` (configuration not stated), the 50% inhibitory concentration (IC50) is greater than 50 µM with A2780; 5.73 µM on Aurora kinase A; 0.96 µM in test [1]; 26 µM in the test with HepG2; 10.9 µM in the test with HCT-116 [3].
`CC1=C(C(=O)Nc2ccc(F)cc2)C(c2ccco2)c2c[nH]nc2N1` (configuration not stated): in test [1], the IC50 came out at 10.4 µM.
